Calls of active or inactive are those of the source.
What was measured:
Insulin-degrading enzyme [1] = biological target: T1, Insulin-degrading enzyme (Homo sapiens, UniProt P14735); test: recombinant IDE activation, cell-free – biochemical, fluorescence polarization, counter-screen for IDE activator project, dose response (AID 588681)
T1 sequence (P14735 whole entry): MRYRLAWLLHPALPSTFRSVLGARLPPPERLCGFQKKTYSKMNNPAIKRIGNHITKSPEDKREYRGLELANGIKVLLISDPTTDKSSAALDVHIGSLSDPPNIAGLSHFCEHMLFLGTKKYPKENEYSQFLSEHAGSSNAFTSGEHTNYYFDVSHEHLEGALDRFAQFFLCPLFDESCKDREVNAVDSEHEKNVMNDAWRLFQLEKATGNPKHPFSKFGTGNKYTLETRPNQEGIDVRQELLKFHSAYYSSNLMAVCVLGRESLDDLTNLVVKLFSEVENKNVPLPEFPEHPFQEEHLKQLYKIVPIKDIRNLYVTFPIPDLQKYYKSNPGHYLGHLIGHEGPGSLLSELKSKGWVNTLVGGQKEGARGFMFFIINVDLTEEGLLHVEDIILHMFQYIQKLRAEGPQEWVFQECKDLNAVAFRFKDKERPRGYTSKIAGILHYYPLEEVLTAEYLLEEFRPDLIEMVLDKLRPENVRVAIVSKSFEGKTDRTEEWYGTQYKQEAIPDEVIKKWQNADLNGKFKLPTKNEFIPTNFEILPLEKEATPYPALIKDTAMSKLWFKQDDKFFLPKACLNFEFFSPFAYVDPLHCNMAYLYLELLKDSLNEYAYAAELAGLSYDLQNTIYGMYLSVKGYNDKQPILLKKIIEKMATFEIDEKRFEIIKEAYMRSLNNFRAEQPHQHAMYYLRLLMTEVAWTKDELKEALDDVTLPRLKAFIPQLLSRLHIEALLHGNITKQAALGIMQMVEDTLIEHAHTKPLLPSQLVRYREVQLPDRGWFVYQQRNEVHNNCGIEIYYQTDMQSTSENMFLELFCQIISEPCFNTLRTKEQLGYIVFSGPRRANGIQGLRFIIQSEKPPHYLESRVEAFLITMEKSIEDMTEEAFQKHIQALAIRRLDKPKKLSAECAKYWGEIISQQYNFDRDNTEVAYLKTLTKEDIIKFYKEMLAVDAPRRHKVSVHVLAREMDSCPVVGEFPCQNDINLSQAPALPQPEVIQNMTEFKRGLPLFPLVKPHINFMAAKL

Insulin-degrading enzyme [2] = biological target: T1, Insulin-degrading enzyme; test: cellular IDE activation of Abeta substrate cleavage – fluorescence polarization, HEK cells, dose response (AID 588439); type: functional, cell-based
HEK293 [3] = test: membrane integrity loss in HEK cells – cell-based, fluorescence, cytotoxicity control for IDE activator project, dose response (AID 588440); type: functional; conditions: Homo sapiens;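 note: cytotoxicity by LDH release measuring loss of membrane integrity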
HEK293 [4] = test: optical interference in Abeta FP readout, dose response, artefact control for IDE activator project, biochemical, fluorescence polarization (AID 588442); type: functional, cell-based; conditions: Homo sapiens
[5] = biological target: FAD-linked sulfhydryl oxidase ALR (Homo sapiens, UniProt P55789); test: ALR-catalysed DTT oxidation blockers – biochemical, H2O2 detection, luminescence, cherry-pick, dose response (AID 493248)
Chain of FAD-linked sulfhydryl oxidase ALR (P55789 whole entry): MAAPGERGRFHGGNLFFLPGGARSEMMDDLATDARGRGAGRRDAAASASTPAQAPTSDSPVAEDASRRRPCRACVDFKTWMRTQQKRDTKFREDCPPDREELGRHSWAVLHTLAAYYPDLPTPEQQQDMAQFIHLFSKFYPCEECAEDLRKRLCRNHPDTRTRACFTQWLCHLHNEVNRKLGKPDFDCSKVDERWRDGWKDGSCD

[6] = biological target: Dual specificity protein kinase CLK1 (Homo sapiens, UniProt P49759); test: inhibition of human CLK1 activity – biochemical, cherry-picked samples, selectivity assay for Dyrk1A inhibitor project, dose response (AID 588811)
Chain of Dual specificity protein kinase CLK1 (P49759 whole entry): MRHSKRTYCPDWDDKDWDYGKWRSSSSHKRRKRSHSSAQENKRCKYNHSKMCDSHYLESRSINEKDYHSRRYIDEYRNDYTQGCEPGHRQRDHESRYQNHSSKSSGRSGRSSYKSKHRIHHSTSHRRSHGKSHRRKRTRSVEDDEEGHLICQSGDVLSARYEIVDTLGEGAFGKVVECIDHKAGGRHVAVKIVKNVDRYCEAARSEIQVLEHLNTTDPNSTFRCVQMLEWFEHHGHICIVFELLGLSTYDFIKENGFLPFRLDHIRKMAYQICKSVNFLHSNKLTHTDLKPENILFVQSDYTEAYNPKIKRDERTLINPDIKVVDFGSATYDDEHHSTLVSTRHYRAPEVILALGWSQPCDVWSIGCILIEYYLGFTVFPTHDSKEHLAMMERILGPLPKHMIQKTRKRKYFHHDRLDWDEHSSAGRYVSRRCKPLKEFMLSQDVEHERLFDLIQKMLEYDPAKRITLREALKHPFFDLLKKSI

[7] = biological target: Dual specificity tyrosine-phosphorylation-regulated kinase 1A (Rattus norvegicus, UniProt Q63470); type: biochemical, Homo sapiens
HeLa = test: ATP-based viability loss in HeLa cells – cell-based, CellTiter-Glo luminescence, cherry-pick samples, cytotoxicity control for MITF activator project, dose response (AID 540259); type: functional; conditions: Homo sapiens
Protein skinhead-1 = biological target: T2, Protein skinhead-1 (Caenorhabditis elegans, UniProt P34707); type: functional
T2 sequence (P34707 whole entry): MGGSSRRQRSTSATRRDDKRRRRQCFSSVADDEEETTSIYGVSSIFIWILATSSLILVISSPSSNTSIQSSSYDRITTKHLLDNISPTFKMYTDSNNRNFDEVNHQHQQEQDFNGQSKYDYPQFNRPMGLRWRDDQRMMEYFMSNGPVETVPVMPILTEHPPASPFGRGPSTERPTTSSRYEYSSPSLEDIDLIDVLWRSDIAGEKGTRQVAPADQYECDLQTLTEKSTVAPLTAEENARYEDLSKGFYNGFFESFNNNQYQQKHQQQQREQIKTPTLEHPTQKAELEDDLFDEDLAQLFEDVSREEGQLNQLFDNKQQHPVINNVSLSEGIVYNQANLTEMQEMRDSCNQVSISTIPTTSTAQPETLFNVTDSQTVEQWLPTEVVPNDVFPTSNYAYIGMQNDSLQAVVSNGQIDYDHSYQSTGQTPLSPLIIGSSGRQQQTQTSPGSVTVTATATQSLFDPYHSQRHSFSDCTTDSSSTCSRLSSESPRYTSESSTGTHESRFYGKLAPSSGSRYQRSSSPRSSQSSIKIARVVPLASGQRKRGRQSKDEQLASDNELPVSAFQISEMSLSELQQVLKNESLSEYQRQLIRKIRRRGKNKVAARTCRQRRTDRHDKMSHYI

Phospholipase D1 = biological target: T3, Phospholipase D1 (Homo sapiens, UniProt Q13393); test: cellular phospholipase D1 inhibition IC50 – cell-based, dose response (AID 602151); type: functional;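 note: cellular PLD1 assay in Calu-1 cells stimulated with PMA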
T3 sequence (Q13393 whole entry): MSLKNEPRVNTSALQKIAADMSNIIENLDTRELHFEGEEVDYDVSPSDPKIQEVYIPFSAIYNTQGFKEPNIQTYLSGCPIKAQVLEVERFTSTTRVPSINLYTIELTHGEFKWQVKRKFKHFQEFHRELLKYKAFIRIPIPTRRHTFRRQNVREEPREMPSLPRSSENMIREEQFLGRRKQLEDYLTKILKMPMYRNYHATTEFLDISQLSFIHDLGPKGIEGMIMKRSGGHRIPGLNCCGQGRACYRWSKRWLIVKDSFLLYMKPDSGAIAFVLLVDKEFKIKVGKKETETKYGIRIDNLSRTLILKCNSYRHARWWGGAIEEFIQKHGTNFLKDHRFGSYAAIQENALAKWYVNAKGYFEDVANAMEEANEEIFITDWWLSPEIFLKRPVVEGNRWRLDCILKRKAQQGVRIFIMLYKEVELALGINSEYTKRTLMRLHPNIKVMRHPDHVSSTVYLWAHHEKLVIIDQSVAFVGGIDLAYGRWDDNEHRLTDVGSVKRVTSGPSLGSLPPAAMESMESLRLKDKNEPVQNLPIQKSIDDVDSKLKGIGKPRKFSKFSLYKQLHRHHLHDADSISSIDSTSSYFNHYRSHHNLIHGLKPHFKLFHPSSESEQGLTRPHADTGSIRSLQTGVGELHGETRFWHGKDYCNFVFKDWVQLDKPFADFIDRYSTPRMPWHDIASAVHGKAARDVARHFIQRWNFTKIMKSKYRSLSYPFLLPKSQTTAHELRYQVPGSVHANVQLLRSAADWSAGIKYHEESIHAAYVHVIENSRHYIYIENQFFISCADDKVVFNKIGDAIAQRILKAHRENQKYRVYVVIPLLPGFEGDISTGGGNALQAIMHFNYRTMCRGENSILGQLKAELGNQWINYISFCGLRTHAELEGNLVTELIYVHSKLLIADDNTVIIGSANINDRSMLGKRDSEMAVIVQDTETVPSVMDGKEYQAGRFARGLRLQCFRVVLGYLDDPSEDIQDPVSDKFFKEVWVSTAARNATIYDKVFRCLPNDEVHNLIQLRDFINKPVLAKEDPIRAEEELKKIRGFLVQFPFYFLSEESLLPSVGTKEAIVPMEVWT

Phospholipase D2 = Phospholipase D2 (Homo sapiens, UniProt O14939); test: cellular phospholipase D2 inhibition IC50 – cell-based, dose response (AID 602147); type: functional;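 note: cellular assay in HEK293 cells overexpressing GFP-tagged PLD2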
Chain of Phospholipase D2 (O14939 whole entry): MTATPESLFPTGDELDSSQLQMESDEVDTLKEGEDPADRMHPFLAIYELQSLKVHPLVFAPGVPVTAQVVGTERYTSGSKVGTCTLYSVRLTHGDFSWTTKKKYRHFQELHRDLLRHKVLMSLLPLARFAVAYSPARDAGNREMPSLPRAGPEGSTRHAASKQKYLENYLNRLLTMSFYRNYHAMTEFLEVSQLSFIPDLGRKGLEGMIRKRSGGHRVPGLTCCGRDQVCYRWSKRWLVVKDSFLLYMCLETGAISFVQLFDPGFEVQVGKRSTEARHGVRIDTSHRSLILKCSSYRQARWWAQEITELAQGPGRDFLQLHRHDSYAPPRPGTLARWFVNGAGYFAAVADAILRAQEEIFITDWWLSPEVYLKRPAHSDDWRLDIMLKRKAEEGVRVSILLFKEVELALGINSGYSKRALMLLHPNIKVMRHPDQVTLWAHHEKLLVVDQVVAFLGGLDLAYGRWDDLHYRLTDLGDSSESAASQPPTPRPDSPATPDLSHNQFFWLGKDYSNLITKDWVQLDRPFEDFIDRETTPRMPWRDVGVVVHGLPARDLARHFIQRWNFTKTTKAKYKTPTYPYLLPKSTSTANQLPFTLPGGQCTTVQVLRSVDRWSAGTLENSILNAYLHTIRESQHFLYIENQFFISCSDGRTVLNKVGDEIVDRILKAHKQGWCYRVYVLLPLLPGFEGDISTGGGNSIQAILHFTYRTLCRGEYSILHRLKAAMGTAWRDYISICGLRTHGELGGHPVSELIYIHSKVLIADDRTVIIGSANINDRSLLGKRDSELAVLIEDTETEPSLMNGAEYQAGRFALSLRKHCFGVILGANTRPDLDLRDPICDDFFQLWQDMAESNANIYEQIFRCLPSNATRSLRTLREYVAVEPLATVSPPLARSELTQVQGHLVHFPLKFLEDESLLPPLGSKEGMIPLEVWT

What does the source list for `CN(C)CCCN(C(=O)CCSc1ccccc1)c1nc2cc3c(cc2s1)OCO3`?
EC50 (Insulin-degrading enzyme [1]): > 54.7 µM (inactive); EC50 (Insulin-degrading enzyme [2]): > 54.7 µM (inactive); IC50 (HEK293 [3]): 33.9 µM (inactive); EC50 (HEK293 [4]): > 54.7 µM (inactive)

`O=C(Nc1nc2c(s1)CCCC2)c1ccc(N2C(=O)CCC2=O)cc1` was tested. Which AC50 [5] did it give?
Its AC50 is 1.11 µM (active).

What about the AC50 [6] of the same molecule?
Its AC50 is 7.74 µM (active).

And the AC50 [7]?
The AC50 was 5.26 µM (active).

`CN(N=O)c1ccc(CC2CCc3ccccc32)cc1` (centres undefined) was tested. Which AC50 (HeLa) did it give?
Its AC50 is 79.8 µM (active).

And the IC50 (Protein skinhead-1)?
The IC50 was 58.5 µM (inactive).

`C[C@@H](CN1CCC2(CC1)C(=O)NCN2c1ccc(F)c(F)c1)NC(=O)c1ccc(Cl)cc1` was tested. Which IC50 (Phospholipase D1) did it give?
The IC50 was 0.031 µM (active).

And the IC50 (Phospholipase D2)?
Its IC50 is 0.125 µM (active).

`c1cc(-c2ccc3c(c2)OCO3)nc(Nc2ccc3c(c2)OCO3)n1` was tested. Which AC50 [6] did it give?
The AC50 was 2.04 µM (active).

How did the IC50 (Phospholipase D1) turn out when `O=C(NCCN1CCC(n2nnc3ccccc32)CC1)c1ccc2ccccc2c1` was run?
The IC50 was 2.7 µM (active).

What about the IC50 (Phospholipase D2) of the same molecule?
Its IC50 is 1.75 µM (active).
